experiment: in vitro; conditions: human, hela cells, % viability

| SMILES | viability at 28.5 h, 10 µM [%] |
| --- | --- |
| CCn1c(CN2CCCC2c2nc(N(C)C)ncc2-c2ccccc2)nc2ccccc21 (stereo not drawn) [CBK286070] | 83.4 |
| CC(=O)Nc1nc2c3ccccc3n(C(C)=O)c2s1 [CBK011360] | 110 |
| Cc1cc(C)n(CCC(=O)N2CCCC2c2nc3ccccc3[nH]2)n1 (stereo not drawn) [CBK283664] | 106 |
| CC(=O)c1cc(C(=O)N2CCC(O)(c3ccccc3C)CC2)cs1 [CBK282532] | 92.8 |
| COc1ccc(C2(CN3CCC(NC(=O)C(C)C)CC3)CC2)cc1 [CBK285374] | 104 |
| O=C(NCCCO)c1cc2ccccc2[nH]1 [CBK267638] | 87.9 |
| CCN1CC(C(=O)N2CCN(C(=O)c3ccccc3F)CC2)CC1=O (stereo not drawn) [CBK282937] | 92.3 |
| CC(CCc1ccccc1)NC(=O)CCC(=O)O (stereo not drawn) [CBK267918] | 86.6 |
| OC(CN(c1ccccc1)c1ccccc1)Cn1cnc2ccccc21 (stereo not drawn) [CBK261417] | 86.8 |
| CC1=NN(c2ccc([N+](=O)[O-])cc2)C(=O)/C1=C/NCCN1CCN(C(=O)c2ccc(F)cc2)CC1 [CBK262920] | 95.1 |
| Cc1nn2c(c1-c1ccccc1)NC(=O)CC2C(=O)O (stereo not drawn) [CBK287118] | 95.3 |
| COCC(=O)N[C@H]1C[C@H]2C(=O)Nc3ccc(-c4ccsc4)cc3C(=O)N2C1 [CBK289360] | 96.6 |
| CC1CCN(S(=O)(=O)c2cccc(S(=O)(=O)c3cccc(S(=O)(=O)N4CCC(C)CC4)c3)c2)CC1 [CBK261731] | 90 |
| Cc1cc(C)c2c(NCc3ccc(C)o3)n[nH]c2n1 [CBK284621] | 94.9 |
| COc1ccc(OC(=O)c2ccc3ncccc3c2)cc1 [CBK083572] | 96.3 |
| Cc1nc(CN2CCCC(NCc3ccc4ccccc4c3)C2)no1 (stereo not drawn) [CBK305160] | 96.5 |
| Cc1c(C)n(CC(=O)O)c2ccccc12 [CBK000884] | 97 |
| O=C1NC/C=C/CC2(CCN(Cc3ccc(Cl)cn3)CC2)C(=O)NCCOc2ccccc21 [CBK292008] | 103 |
| CCCn1ccnc1CN1CCC2(CC1)CC(C(=O)O)N(C(C)=O)C2 (stereo not drawn) [CBK306691] | 92.9 |
| Cn1c(N2CC[C@H](O)C2)nc2cc(C(=O)NCCC3CCCC3)ccc21 [CBK307447] | 87.9 |
| O=C(NCC1CCCN1)c1cc2cc(Cl)ccc2[nH]1 (stereo not drawn) [CBK115917C] | 104 |

| SMILES | viability at 28.5 h, 10 µM [%] |
| --- | --- |
| CC(=O)NCCSc1nccc(C(F)(F)F)n1 [CBK105301] | 102 |
| COc1cccc(N2N=C3NNC(N)=C3N2)c1 [CBK093665] | 83.7 |
| O=C(CC[C@@H]1CNC(=O)[C@@H]2C[C@H](NC(=O)C3CC3)CN12)Nc1ccccc1 [CBK289006] | 113 |
| CCNC1(Cc2cc(C(=O)N3CCCCC3)on2)COC1 [CBK289671] | 84.2 |
| COc1ccc(CN(C(=O)c2cccc(-n3cnnn3)c2)C2CC2)cc1 [CBK256997] | 91.6 |
| Cc1cc(Cl)c(S(=O)(=O)Nc2ccc(Oc3ccccc3)cc2)cc1OCC(N)=O [CBK266583] | 99.8 |
| CC(Oc1ccc(Cl)cc1)C(=O)Nc1ncccn1 (stereo not drawn) [CBK288206] | 96.5 |
| CCCC/C=C/c1cccc(Nc2cccnc2)n1 [CBK037645] | 103 |
| COc1cccc(N2C(=O)CC(N3CCN(Cc4ccc5c(c4)OCO5)CC3)C2=O)c1 (stereo not drawn) [CBK074411] | 93.1 |
| COc1cccc(N2CCN(CC(CC(=O)Nc3ccccc3)C(=O)O)CC2)c1 (stereo not drawn) [CBK286813] | 89.8 |
| O=C(CSc1nc2sc3c(c2c(=O)n1Cc1ccco1)CCC3)NCc1ccco1 [CBK268499] | 101 |
| CC(=O)NC(c1ccccn1)C1CCCN(C(=O)C2CCCCC2)C1 (stereo not drawn) [CBK285031] | 109 |
| CCCC1=NNC(=O)/C1=C\c1cnc[nH]1 [CBK067767] | 105 |
| CC[C@H]1CN(C(=O)NC(C)C)CC[C@H]1CC(=O)NCc1ccc2c(c1)OCO2 [CBK288775] | 97.9 |
| CC(CNC(=O)C(C)Oc1ccccc1)CN(C)C (stereo not drawn) [CBK268658] | 94 |
| CC(C)(C)OC(=O)NCCc1ccc(Nc2cc(-c3cc4ccccc4s3)ncn2)cc1 [CBK090959] | 94.3 |
| COc1ccccc1-c1cccc(NCC(c2cccnc2)N(C)C)n1 (stereo not drawn) [CBK037770] | 103 |
| CCn1cc(Cl)c(C(=O)Nc2ccsc2C(=O)OC)n1 [CBK058439] | 90.9 |
| COc1cc(C(=O)N2CCC3(CC2)CC(=O)c2cc(-c4cccc(C)c4)ccc2O3)cc(OC)c1C [CBK170341] | 87.7 |
| O=C(Nc1cc(N2CCCS2(=O)=O)ccc1F)c1cccnc1O [CBK306320] | 97.4 |
| CCCS(=O)(=O)N1CCCC(Cc2ccccc2C)(C(=O)OCC)C1 (stereo not drawn) [CBK307502] | 84.9 |

| SMILES | viability at 28.5 h, 10 µM [%] |
| --- | --- |
| CN(C)c1nc(Cl)c(C=Cc2cc(C(=O)O)c3ccccc3n2)s1 [CBK298272] | 110 |
| Cc1ccc(NC(=O)c2nc(-c3ccc(C(=O)N4CCOCC4)cc3)cnc2N)c(O)c1 [CBK149152] | 44.3 |
| CC(=O)Nc1ccc(S(=O)(=O)N2CCN(S(=O)(=O)N(C)C)CC2)cc1 [CBK266545] | 95.9 |
| COc1ccc(Nc2nc(-c3cc(C(C)C)ccc3OC)cn3ccnc23)cn1 [CBK066354] | 84.3 |
| Nc1cc(Cl)nc(SCC2CCCCC2)n1 [CBK007970] | 93.2 |
| O=C(NCCN1CCN(Cc2ccccc2Cl)CC1)Nc1ccccc1 [CBK268039] | 93.4 |
| CCCn1cnc2cc(NC(=O)Cn3cccc(C(=O)Nc4ccc(F)cc4)c3=O)ccc21 [CBK286060] | 84.7 |
| N#Cc1c(N)nc(SCC(=O)c2cc3ccccc3oc2=O)c(C#N)c1-c1ccc(O)cc1 [CBK261269] | 103 |
| O=C(Cn1c(=O)n(Cc2cccs2)c2ncccc21)NCC1CC1 [CBK283899] | 89.3 |
| N#C/C(=C\c1cn(-c2ccccc2)nc1-c1ccc(S(=O)(=O)N2CCOCC2)cc1)c1nc2ccccc2c(=O)[nH]1 [CBK266343] | 104 |
| NC(=O)Nc1ccc(C(=O)N2CCN(c3ccccc3)CC2)cc1 [CBK306392] | 101 |
| COc1ccccc1N1CCN(C(=O)C2CC2C)CC1 (stereo not drawn) [CBK091496] | 108 |
| O=C(CCn1c(CO)nc2ccccc21)c1ccccc1 [CBK296947] | 102 |
| CCn1cc(CN2CCCN(C(=O)c3cc(C)on3)CC2)cn1 [CBK306145] | 88.1 |
| COc1ccc2[nH]cc(CCNC(=O)/C=C/c3ccc(C(C)C)cc3)c2c1 [CBK149639] | 91.7 |
| O=C(O)CCSc1nc(-c2ccccc2)c(-c2ccccc2)[nH]1 [CBK264228] | 109 |
| CCOc1ccc(-c2ccnc(N[C@H]3CC[C@@H](N)CC3)n2)cc1C(=O)O [CBK307104] | 89.8 |
| CC(C(=O)NC1(C#N)CCCCC1)N1CCOC(Cn2cccn2)C1 (stereo not drawn) [CBK305337] | 88.9 |
| COc1cccc(N2CCN(c3cc4n[nH]c(=O)n4cn3)CC2)c1 [CBK300511] | 87.1 |

same assay, conditions: human, hela cells, % viability, bulk resorufin, single well

| SMILES | viability at 28.5 h, 10 µM [%] |
| --- | --- |
| CCC1(c2ccccc2)C(=O)NC(=O)N(CCN2CCOCC2)C1=O (stereo not drawn) [CBK288379] | 88 |
| N#CC1(c2ccccc2)CCN(C(=O)c2ccc3c(c2)no[n+]3[O-])CC1 [CBK091405] | 92.2 |
